According to patent publication US8765677B2 (priority 2009, dated 2014):
Several values for one entry are separate records, joined by “and”; a condition that tells them apart may be missing. Equal entries are not always repeated. Where a SMILES comes first, the peptide text is derived from it.

Tests used:
[1] = target: recombinant Cav2.3 α1E (R-type) channels (α/α2δ1/β3) (Rattus norvegicus, UniProt Q07652); assay type: cell-based
[2] = target: recombinant Cav1.2 α1C (L-type) channels (α/α2δ1/β3) (Oryctolagus cuniculus, UniProt P15381); assay type: cell-based, rabbit
[3] = tested on: recombinant N-type (Cav2.2) VGCCs α1B-b/β3; assay type: cell-based, rat
[4] = target: recombinant Cav2.1 α1A (P/Q-type) channels (α/α2δ1/β3) (Oryctolagus cuniculus, UniProt P27884); assay: cell-based; design: species or system rabbit; conditions: read-out: inhibition of Cav2.1 channels
[5] = target: recombinant N-type (Cav2.2) VGCCs α1B-b/α2δ1/β3 (Rattus norvegicus, UniProt Q02294); assay: cell-based; assay type: cell-based
[6] = target: recombinant Cav1.3 α1D (L-type) channels (α/α2δ1/β3) (Rattus norvegicus, UniProt P27732); assay type: cell-based

Chain of recombinant N-type (Cav2.2) VGCCs α1B-b/α2δ1/β3 (Q02294 whole entry, looked up): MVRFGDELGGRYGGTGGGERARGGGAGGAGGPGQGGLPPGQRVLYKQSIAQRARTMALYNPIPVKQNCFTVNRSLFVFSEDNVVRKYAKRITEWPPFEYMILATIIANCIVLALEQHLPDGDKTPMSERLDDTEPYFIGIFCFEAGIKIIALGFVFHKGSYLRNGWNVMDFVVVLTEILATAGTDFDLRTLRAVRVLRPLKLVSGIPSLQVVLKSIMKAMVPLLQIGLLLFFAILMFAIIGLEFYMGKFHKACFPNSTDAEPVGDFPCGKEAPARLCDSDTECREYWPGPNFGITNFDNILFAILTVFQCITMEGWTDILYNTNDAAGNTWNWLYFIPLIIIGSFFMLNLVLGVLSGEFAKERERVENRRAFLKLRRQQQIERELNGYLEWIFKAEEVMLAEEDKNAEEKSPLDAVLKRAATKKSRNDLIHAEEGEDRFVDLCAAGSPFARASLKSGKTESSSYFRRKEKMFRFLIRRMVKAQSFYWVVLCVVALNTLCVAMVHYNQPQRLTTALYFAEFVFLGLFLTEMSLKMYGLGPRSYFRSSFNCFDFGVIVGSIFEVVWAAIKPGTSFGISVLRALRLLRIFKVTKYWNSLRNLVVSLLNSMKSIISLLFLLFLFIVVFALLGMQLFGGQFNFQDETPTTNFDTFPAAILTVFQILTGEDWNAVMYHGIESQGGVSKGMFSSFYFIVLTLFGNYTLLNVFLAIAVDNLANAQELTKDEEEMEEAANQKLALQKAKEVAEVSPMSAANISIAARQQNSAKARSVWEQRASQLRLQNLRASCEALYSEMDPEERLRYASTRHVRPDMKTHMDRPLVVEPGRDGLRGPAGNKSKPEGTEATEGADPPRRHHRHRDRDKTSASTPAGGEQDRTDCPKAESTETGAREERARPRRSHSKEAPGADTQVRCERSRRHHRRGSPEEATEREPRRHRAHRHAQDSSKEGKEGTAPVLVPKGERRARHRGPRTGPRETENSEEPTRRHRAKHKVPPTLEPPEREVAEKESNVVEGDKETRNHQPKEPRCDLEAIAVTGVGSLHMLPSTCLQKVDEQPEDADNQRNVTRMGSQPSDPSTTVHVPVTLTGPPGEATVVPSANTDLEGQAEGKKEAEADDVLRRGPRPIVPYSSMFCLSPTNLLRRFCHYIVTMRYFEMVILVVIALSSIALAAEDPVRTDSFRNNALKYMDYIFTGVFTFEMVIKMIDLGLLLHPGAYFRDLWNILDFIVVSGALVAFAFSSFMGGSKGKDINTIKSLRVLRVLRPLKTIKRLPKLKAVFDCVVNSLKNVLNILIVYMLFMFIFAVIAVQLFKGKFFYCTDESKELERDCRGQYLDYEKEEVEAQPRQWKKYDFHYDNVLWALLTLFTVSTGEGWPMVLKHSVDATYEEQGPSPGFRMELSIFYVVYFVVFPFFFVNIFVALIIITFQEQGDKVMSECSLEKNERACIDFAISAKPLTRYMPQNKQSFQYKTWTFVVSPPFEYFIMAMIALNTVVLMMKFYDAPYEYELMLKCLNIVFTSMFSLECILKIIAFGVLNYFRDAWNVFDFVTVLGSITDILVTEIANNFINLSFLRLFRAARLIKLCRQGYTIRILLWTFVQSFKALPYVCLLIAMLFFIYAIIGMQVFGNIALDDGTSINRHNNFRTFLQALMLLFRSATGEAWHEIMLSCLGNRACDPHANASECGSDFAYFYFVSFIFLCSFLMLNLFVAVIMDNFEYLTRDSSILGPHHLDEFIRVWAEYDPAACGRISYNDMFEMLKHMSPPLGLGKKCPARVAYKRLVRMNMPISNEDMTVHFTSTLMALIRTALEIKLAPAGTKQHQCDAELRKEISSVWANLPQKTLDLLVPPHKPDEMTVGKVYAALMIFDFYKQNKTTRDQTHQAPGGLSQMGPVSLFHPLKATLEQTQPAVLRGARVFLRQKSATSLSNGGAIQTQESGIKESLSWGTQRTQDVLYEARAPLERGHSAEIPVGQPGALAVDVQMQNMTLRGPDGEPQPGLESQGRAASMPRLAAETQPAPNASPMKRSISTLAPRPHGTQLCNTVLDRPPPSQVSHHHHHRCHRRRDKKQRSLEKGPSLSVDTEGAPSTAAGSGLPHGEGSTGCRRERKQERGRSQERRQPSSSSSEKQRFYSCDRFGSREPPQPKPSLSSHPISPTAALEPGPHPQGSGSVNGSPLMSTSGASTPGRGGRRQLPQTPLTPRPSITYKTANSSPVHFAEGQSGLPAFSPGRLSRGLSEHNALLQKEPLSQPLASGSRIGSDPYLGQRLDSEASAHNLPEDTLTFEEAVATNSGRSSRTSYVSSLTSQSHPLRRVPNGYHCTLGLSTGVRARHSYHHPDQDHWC
Chain of recombinant Cav2.3 α1E (R-type) channels (α/α2δ1/β3) (Q07652 whole entry, looked up): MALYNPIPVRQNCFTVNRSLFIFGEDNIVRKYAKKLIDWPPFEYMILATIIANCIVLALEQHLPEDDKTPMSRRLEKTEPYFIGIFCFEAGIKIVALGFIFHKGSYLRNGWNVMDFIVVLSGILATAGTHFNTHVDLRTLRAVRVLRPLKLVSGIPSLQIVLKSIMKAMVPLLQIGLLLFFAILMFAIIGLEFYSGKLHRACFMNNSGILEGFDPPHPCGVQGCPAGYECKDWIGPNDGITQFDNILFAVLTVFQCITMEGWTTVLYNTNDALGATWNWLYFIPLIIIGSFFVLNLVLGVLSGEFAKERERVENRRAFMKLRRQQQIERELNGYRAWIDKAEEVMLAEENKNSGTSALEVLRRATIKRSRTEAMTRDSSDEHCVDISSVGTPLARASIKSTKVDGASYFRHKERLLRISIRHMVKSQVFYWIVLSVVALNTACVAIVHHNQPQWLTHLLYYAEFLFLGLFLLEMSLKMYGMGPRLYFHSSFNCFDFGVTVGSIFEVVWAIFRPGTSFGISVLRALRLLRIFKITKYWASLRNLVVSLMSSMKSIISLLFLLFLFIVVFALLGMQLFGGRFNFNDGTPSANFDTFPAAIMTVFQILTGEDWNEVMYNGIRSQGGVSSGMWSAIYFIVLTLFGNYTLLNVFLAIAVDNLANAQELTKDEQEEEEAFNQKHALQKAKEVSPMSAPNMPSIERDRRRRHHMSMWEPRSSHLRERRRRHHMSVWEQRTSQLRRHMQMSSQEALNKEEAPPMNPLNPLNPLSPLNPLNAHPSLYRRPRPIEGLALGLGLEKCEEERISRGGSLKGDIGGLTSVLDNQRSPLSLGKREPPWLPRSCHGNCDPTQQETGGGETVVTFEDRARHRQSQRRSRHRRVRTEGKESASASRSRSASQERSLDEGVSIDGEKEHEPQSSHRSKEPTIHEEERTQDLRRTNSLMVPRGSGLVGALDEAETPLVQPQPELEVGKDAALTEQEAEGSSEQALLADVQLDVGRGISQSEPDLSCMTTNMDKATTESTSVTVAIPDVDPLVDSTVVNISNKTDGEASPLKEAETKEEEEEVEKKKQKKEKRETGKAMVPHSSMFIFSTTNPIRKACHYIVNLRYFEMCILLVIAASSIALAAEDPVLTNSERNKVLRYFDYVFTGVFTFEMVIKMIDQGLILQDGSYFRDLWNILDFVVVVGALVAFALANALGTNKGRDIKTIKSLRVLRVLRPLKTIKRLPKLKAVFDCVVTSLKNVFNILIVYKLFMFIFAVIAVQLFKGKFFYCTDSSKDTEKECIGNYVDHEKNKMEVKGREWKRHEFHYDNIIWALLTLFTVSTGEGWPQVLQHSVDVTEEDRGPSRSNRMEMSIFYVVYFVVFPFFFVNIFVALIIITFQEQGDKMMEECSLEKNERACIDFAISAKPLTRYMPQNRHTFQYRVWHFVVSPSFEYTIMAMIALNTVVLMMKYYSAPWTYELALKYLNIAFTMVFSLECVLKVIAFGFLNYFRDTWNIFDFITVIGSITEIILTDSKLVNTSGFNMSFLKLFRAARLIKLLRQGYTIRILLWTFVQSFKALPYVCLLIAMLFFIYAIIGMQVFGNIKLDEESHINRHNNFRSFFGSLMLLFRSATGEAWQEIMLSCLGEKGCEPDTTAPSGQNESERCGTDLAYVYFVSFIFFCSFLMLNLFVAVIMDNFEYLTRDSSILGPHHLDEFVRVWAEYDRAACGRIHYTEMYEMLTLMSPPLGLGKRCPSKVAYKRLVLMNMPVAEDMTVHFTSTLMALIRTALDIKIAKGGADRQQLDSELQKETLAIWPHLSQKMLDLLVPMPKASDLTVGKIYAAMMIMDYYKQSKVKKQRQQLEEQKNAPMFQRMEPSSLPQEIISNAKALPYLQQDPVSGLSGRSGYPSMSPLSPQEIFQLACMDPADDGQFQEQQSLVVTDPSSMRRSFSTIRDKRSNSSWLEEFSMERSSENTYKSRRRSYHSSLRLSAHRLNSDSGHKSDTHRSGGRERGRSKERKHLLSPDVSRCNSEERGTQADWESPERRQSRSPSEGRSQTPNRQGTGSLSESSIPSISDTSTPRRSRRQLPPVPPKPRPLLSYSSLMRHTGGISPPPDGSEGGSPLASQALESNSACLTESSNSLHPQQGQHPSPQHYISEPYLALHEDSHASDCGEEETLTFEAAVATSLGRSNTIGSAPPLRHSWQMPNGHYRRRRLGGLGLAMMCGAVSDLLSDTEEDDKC

SMILES	effect on Cav2.3 channels [1]	effect on Cav1.2 channels [2]	IC50 [3] [nM]	inhibition at 3 µM [4] [%]	Hill slope [5]	IC50 [5] [nM]	inhibition of depolarization-activated Ba2+ currents (IBa) [5]	time constant of block (τon) [5]	effect on Cav1.3 channels [6]
C[C@@H]1NC(=O)CNC(=O)[C@H](CCCCN)NC(=O)CNC(=O)[C@H](CCCCN)NC(=O)[C@@H](N)CSSC[C@@H]2NC(=O)[C@@H]3CSSC[C@@H](C(N)=O)NC(=O)[C@H](CCCNC(=N)N)NC(=O)CNC(=O)[C@H](CO)NC(=O)[C@H](CCCNC(=N)N)NC(=O)[C@H](CSSC[C@H](NC(=O)[C@H](CO)NC1=O)C(=O)N[C@@H](CCCNC(=N)N)C(=O)N[C@@H](CCCNC(=N)N)C(=O)N[C@@H]([C@@H](C)O)C(=O)N[C@@H](CO)C(=O)N[C@@H](Cc1ccc(O)cc1)C(=O)N[C@@H](CC(=O)O)C(=O)N3)NC(=O)[C@H](CO)NC(=O)CNC(=O)[C@H]([C@@H](C)O)NC2=O [CVIE, CKGKGASCRRTSYDCCTGSCRSGRC]	neither peptide had any effect	neither peptide had any effect	0.12 ± 0.05	< 10	0.45±0.03	2.6 ± 0.5	potently inhibited	31.5 ± 2.4 s and 38.5 ± 2.8 s	neither peptide had any effect
CSCC[C@@H]1NC(=O)[C@H]([C@@H](C)O)NC(=O)[C@H](CCCCN)NC(=O)[C@H](CCCNC(=N)N)NC(=O)[C@@H]2CSSC[C@@H]3NC(=O)[C@H](CO)NC(=O)CNC(=O)[C@H](CCCNC(=N)N)NC(=O)[C@H](CSSC[C@H](N)C(=O)N[C@@H](CCCCN)C(=O)NCC(=O)N[C@@H](CCCCN)C(=O)NCC(=O)N[C@@H](C)C(=O)N[C@@H](CO)C(=O)N2)NC(=O)[C@H](CSSC[C@@H](C(N)=O)NC(=O)[C@H](CCCNC(=N)N)NC(=O)CNC(=O)[C@H](CO)NC(=O)[C@H](CCCNC(=N)N)NC3=O)NC(=O)[C@H](CC(=O)O)NC(=O)[C@H](Cc2ccc(O)cc2)NC1=O [CVIB, reference compound] (HELM PEPTIDE1{C.K.G.K.G.A.S.C.R.K.T.M.Y.D.C.C.R.G.S.C.R.S.G.R.C.[am]}$PEPTIDE1,PEPTIDE1,1:R3-16:R3|PEPTIDE1,PEPTIDE1,8:R3-20:R3|PEPTIDE1,PEPTIDE1,15:R3-25:R3$$$V2.0)			1.6 ± 0.6		0.47±0.03	12 ± 2.3			
CC(C)C[C@@H]1NC(=O)[C@H](CCCNC(=N)N)NC(=O)[C@@H]2CSSC[C@@H]3NC(=O)[C@H](CO)NC(=O)[C@H](C)NC(=O)CNC(=O)[C@H](CCCCN)NC(=O)CNC(=O)[C@H](CCCCN)NC(=O)[C@@H](N)CSSC[C@H](NC(=O)[C@H](CSSC[C@@H](C(N)=O)NC(=O)[C@H](CCCNC(=N)N)NC(=O)CNC1=O)NC(=O)[C@H](CC(=O)O)NC(=O)[C@H](Cc1ccc(O)cc1)NC(=O)[C@H](CO)NC(=O)[C@H]([C@@H](C)O)NC(=O)[C@H](CCCNC(=N)N)NC(=O)[C@H](CCCNC(=N)N)NC3=O)C(=O)N[C@@H]([C@@H](C)O)C(=O)NCC(=O)N[C@@H](CO)C(=O)N2 [CVIF] (HELM PEPTIDE1{C.K.G.K.G.A.S.C.R.R.T.S.Y.D.C.C.T.G.S.C.R.L.G.R.C.[am]}$PEPTIDE1,PEPTIDE1,1:R3-16:R3|PEPTIDE1,PEPTIDE1,8:R3-20:R3|PEPTIDE1,PEPTIDE1,15:R3-25:R3$$$V2.0)	neither peptide had any effect	neither peptide had any effect	0.1 ± 0.07	< 10	0.51±0.04		potently inhibited		neither peptide had any effect
